Experiments:
MCT4 [1] = target: T1, MCT4 (Homo sapiens (Human), UniProt O15427); assay: Lactate transport in MCT4-expressing MDA-MB-453 breast cancer cells (BCECF); format: cell-based; conditions: MDA-MB-453 cells stably expressing MCT4; 50 mM L-lactate
Procedure: Assay 1: Lactate Transport in MCT4-Expressing MDA-MB-453 Breast Cancer Cells. […] The following is an exemplary procedure for assaying MCT4 activity of the compounds of Formula (I). Preparing BCECF-Loaded Cells: […] The cells are pelleted (300 g, 5 min), washed once with 1 mL Tyrode's Solution, pH 7.4, re-pelleted (300 g, 5 min), and resuspended in 1 mL Tyrode's Solution, pH 7.4. Lactate Transport Assay: […] Fluorescence measurements are performed on a PerkinElmer LS55 fluorescence spectrometer with dual excitation wavelengths achieved using a filter wheel (FL Winlab program: Fast Filter; […] Emission 535). After establishing baseline BCECF fluorescence (around 10-20 s), 50 μL of 1 M sodium L-lactate (Sigma-Aldrich) is added to the cuvette (final concentration: 50 mM) and rapidly mixed.

MCT4 [2] = target: T1, MCT4; assay: MCT4-mediated lactate transport in NCI-H358 lung adenocarcinoma cells; format: cell-based; conditions: native MCT4, 50 mM L-lactate
Procedure: Cells (˜7×10^6) are trypsinized (0.05% Trypsin-EDTA), pelleted (300 g, 5 min), and resuspended in 1 mL Tyrode's Solution, pH 7.4 (119 mM NaCl, 5 mM KCl, 25 mM HEPES, pH 7.4, 2 mM CaCl2, 2 mM MgCl2, 6 g/L glucose). 10 μL of a 30 mM DMSO stock of BCECF-AM ester (Life Technologies) is added and the cells are incubated at 37° C. for 5 min. The cells are pelleted (300 g, 5 min), washed once with 1 mL Tyrode's Solution, pH 7.4, re-pelleted (300 g, 5 min), and resuspended in 1 mL Tyrode's Solution, pH 7.4.
2.5 μL BCECF-loaded cells, along with either 10 μL DMSO or 100×compound in DMSO, are added to 937.5 μL of Tyrode's Solution in a quartz 1.0 mL cuvette (PerkinElmer, B0631116). Fluorescence measurements are performed on a PerkinElmer LS55 fluorescence spectrometer with dual excitation wavelengths achieved using a filter wheel (FL Winlab program: Fast Filter; Excitation 490/440; Emission 535). After establishing baseline BCECF fluorescence (around 10-20 s), 50 μL of 1 M sodium L-lactate (Sigma-Aldrich) is added to the cuvette (final concentration: 50 mM) and rapidly mixed. The time-dependent decrease in BCECF fluorescence (490/440 ratio) may be fit to an exponential decay curve (Prism GraphPad) to determine the rate of lactate transport.
Assay 2: MCT4-Mediated Lactate Transport in NCI-H358 Lung Adenocarcinoma Cells.
NCI-H358 lung adenocarcinoma cells may be used to measure MCT4 activity in cells with high native levels of MCT4 and low levels of MCT1 and are known to those with skill in the art. Preparation of BCECF-loaded cells and lactate transport activity may be determined as described for Assay 1.

MCT4 [3] = target: T1, MCT4; assay: MCT4-mediated lactate transport in MDA-MB-231 breast cancer cells; format: cell-based; conditions: MDA-MB-231 cells, native MCT4; 50 mM L-lactate
How it was run: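 MDA-MB-231 cells loaded with BCECF-AM for 5 min at 37° C, then held in Tyrode's Solution, pH 7.4, with compound or 1% DMSO. After baseline, sodium L-lactate added to 50 mM final. Transport rate from exponential fit of the falling 490/440 BCECF ratio.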

MCT1 = MCT1 (Homo sapiens (Human), UniProt P53985); assay: MCT1-mediated lactate transport in BT20 breast cancer cells; format: cell-based; conditions: native MCT1, 10 mM L-lactate
MCT1, sequence (P53985 whole entry): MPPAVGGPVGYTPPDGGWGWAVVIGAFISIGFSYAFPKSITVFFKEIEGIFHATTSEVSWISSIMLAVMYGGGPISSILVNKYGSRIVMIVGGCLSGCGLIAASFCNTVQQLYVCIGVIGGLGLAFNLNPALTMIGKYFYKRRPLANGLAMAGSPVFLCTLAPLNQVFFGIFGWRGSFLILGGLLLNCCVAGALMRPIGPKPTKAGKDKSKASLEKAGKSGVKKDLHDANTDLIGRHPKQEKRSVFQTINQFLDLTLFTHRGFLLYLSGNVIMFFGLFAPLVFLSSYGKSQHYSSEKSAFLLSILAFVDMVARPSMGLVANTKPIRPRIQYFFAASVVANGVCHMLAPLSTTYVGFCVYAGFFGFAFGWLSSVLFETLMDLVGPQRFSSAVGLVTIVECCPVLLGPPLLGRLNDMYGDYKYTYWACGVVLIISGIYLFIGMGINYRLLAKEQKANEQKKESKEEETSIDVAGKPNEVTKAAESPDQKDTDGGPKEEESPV
MCT1, sequence (P35613 140-385 partner): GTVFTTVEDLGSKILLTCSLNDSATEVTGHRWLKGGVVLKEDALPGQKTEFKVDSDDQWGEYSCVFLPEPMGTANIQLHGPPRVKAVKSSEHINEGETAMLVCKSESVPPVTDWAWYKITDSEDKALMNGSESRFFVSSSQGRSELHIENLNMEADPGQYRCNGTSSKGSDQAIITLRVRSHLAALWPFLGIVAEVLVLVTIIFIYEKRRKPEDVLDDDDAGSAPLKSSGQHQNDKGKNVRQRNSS
How it was run: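 BT20 cells loaded with BCECF-AM (5 min, 37 °C) were placed in Tyrode's Solution, pH 7.4, with compound or DMSO in a cuvette. After baseline, 10 mM L-lactate was added, and the transport rate came from an exponential fit to the fall in BCECF fluorescence (490/440 ratio).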

[4] = Metabolic stability in human liver microsomes; format: in vitro ADME; conditions: human liver microsomes 0.5 mg/mL, 2 μM compound; remaining percentage of parent at 60 min
Procedure: (§1) Metabolic Stability Assays The following are assays that may be used to evaluate the metabolic stability of compounds of Formula (I) in human or mouse microsomes. 1. […] Two separated experiments were performed as follows. a) With NADPH: 10 μL of 20 mg/mL liver microsomes and 40 μL of 10 mM NADPH were added to the incubations. […] The final concentration of microsomes was 0.5 mg/mL. 3. The reaction was started with the addition of 4 μL of 200 μM control compound or test compound solutions. Verapamil was used as positive control in this study. The final concentration of test compound or control compound was 2 μM. 4. Aliquots of 50 μL were taken from the reaction solution at 0, 15, 30, 45 and 60 min. […] Samples were centrifuged at 3, 220 g for 40 minutes. Aliquot of 90 μL of the supernatant was mixed with 90 μL of ultra-pure H2O and then used for LC-MS/MS analysis. 5. Data analysis. All calculations were carried out using Microsoft Excel. Peak areas were determined from extracted ion chromatograms. The slope value, k, was determined by linear regression of the natural logarithm of the remaining percentage of the parent drug vs. incubation time curve. The in vitro half-life (in vitro t½) was determined from the slope value: in vitro t1/2=−(0.693)/k.

[5] = Metabolic stability in mouse liver microsomes; format: in vitro ADME; conditions: mouse liver microsomes 0.5 mg/mL, 2 μM compound; remaining percentage of parent at 60 min
Procedure: as §1

T1 sequence (O15427 whole entry, looked up): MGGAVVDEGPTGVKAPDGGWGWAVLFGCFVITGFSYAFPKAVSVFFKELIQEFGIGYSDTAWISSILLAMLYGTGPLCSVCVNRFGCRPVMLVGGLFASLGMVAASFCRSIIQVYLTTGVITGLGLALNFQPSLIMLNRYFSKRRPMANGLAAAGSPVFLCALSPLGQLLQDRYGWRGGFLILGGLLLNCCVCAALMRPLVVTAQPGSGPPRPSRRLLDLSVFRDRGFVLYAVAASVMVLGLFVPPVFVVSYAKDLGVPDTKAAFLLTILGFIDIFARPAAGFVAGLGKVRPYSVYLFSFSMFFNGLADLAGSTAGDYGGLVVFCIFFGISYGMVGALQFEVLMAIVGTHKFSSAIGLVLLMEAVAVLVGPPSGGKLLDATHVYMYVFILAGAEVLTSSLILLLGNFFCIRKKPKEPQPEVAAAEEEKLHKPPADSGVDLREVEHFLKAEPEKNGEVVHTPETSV
T1 sequence (P35613 whole entry partner, looked up): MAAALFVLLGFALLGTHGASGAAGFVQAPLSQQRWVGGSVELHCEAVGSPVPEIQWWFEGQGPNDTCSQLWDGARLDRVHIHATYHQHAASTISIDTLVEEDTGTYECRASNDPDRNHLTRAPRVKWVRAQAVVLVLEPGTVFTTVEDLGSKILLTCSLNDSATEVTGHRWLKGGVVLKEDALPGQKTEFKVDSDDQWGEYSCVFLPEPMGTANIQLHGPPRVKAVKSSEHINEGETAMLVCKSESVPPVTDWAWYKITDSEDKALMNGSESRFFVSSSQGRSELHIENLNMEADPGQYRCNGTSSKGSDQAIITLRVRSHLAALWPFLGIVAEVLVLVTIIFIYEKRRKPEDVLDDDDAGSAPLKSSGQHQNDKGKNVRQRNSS

| SMILES | IC50 (MCT4 [1]) | IC50 (MCT4 [2]) | IC50 (MCT4 [3]) | IC50 (MCT1; Table 2) | IC50 (MCT1; Table 3) | Human microsome % 60 min [4] | Mouse microsome % 60 min [5] |
| --- | --- | --- | --- | --- | --- | --- | --- |
| COc1cccc(-c2cc(COC(C)(C)C(=O)O)nn2Cc2ccccc2Cl)c1 [Example 14, 2-[[1-[(2-Chlorophenyl)methyl]-5-(3-methoxyphenyl)pyrazol-3-yl]methoxy]-2-methyl-propanoic acid] | 26 nM | 44 nM | 30 nM | > 100000 nM | > 100000 nM | 82% | 95% |
| CC(C)(OCc1cc(-c2ccc(Cl)cc2)n(Cc2ccccn2)n1)C(=O)O [Example 22, 2-[[5-(4-Chlorophenyl)-1-(2-pyridylmethyl)pyrazol-3-yl]methoxy]-2-methyl-propanoic acid] | 14000 nM | 39000 nM | – | 150000 nM | – | – | – |
| CC(C)COc1cccc(-c2cc(COC(C)(C)C(=O)O)nn2Cc2ccccc2Cl)c1 [Example 27, 2-[[1-[(2-Chlorophenyl)methyl]-5-(3-isobutoxyphenyl)pyrazol-3-yl]methoxy]-2-methyl-propanoic acid] | – | – | 1 nM | – | 5600 nM | 43% | 50% |
| CC(C)Oc1cccc(-c2cc(COC(C)(C)C(=O)O)nn2Cc2ccccc2Cl)c1 [Example 35, 2-[[1-[(2-Chlorophenyl)methyl]-5-(3-isopropoxyphenyl)pyrazol-3-yl]methoxy]-2-methyl-propanoic acid] | – | – | 5.2 nM | – | 59000 nM | 67% | 31% |
| COc1cccc(-c2cc(COC(C)(C)C(=O)O)nn2Cc2ccccc2OC)c1 [Example 36, 2-[[5-(3-Methoxyphenyl)-1-[(2-methoxyphenyl)methyl]pyrazol-3-yl]methoxy]-2-methyl-propanoic acid] | – | – | 82 nM | – | 50000 nM | 85% | 99% |
| COc1cccc(-c2cc(COC(C)(C)C(=O)O)nn2Cc2ccccc2N(C)C)c1 [Example 38, 2-[[1-[[2-(Dimethylamino)phenyl]methyl]-5-(3-methoxyphenyl)pyrazol-3-yl]methoxy]-2-methyl-propanoic acid] | – | – | 48 nM | – | 60000 nM | 56% | 61% |
| CC(C)(OCc1cc(-c2cccc(OC3CC3)c2)n(Cc2ccccc2Cl)n1)C(=O)O [Example 39, 2-[[1-[(2-Chlorophenyl)methyl]-5-[3-(cyclopropoxy)phenyl]pyrazol-3-yl]methoxy]-2-methyl-propanoic acid] | – | – | 5.4 nM | – | 10000 nM | 89% | 88% |
| COc1cccc(-c2c(C)c(COC(C)(C)C(=O)O)nn2Cc2ccccc2Cl)c1 [Example 54, 2-({1-[(o-Chlorophenyl)methyl]-5-(m-methoxyphenyl)-4-methyl-1H-pyrazol-3-yl}methoxy)-2-methylpropionic acid] | – | – | 37 nM | – | 27000 nM | 59% | 95% |
| COc1cccc(-c2cc(COC(C)(C)C(=O)O)nn2-c2ccccc2Cl)c1 [Example 57, 2-[[1-(2-chlorophenyl)-5-(3-methoxyphenyl)-1H-pyrazol-3-yl]methoxy]-2-methylpropanoic acid] | – | – | – | – | > 133000 nM | 80% | 100% |
| COc1ccc(-c2cc(COC(C)(C)C(=O)O)nn2Cc2ccccc2Cl)s1 [Example 64, 2-([1-[(2-Chlorophenyl)methyl]-5-(5-methoxythiophen-2-yl)-1H-pyrazol-3-yl]methoxy)-2-methylpropanoic Acid] | – | – | 8.3 nM | – | 45000 nM | 82% | 84% |
| COc1csc(-c2cc(COC(C)(C)C(=O)O)nn2Cc2ccccc2Cl)c1 [Example 65, 2-([1-[(2-Chlorophenyl)methyl]-5-(4-methoxythiophen-2-yl)-1H-pyrazol-3-yl]methoxy)-2-methylpropanoic Acid] | – | – | 8 nM | – | 13000 nM | 78% | 92% |
| COc1cc(-c2cc(COC(C)(C)C(=O)O)nn2Cc2ccccc2Cl)cs1 [Example 66, 2-([1-[(2-chlorophenyl)methyl]-5-(5-methoxythiophen-3-yl)-1H-pyrazol-3-yl]methoxy)-2-methylpropanoic Acid] | – | – | 7.8 nM | – | 45000 nM | 73% | 83% |
| CCC(C)(OCc1cc(-c2cccc(OC)c2)n(Cc2ccccc2Cl)n1)C(=O)O (centres unmarked) [Example 68, 2-([1-[(2-Chlorophenyl)methyl]-5-(3-methoxyphenyl)-1H-pyrazol-3-yl]methoxy)-2-methylbutanoic Acid] | – | – | 9.1 nM | – | 26000 nM | 95% | 91% |

Source: patent US10202350B2, “MCT4 inhibitors for treating disease” (Vettore, LLC, priority 2015, dated 2019)
